Assay results published in patent publication US12714688B2, “Margaric acid decreases PIEZ02-mediated pain” (The United States of America, as represented by The …, priority 2020, dated 2026).

Assays:
[1] = system: PIEZO2-PIEZO1 beam chimera; experiment: Whole-cell patch-clamp of N2A^Piezo1−/− cells transfected with Piezo2-Piezo1 beam chimera; settings: MA 100 μM 18 h; latrunculin A 1 μM for 1 h
Experimental: (§1) Cell culture and electrophysiology: Piezo1 knock-out mouse N2A (N2A^Piezo1−/−) cells were a gift from Dr. Gary R. Lewin, human Merkel cell carcinoma cell line (MCC13 cells; Cell Bank Australia reference number: CBA1338) were obtained from Sigma, and DRG neurons were obtained from sacrificed mice. N2A^Piezo1−/− cells were cultured in Dulbecco's Modified Eagle Medium (DMEM), 5% penicillin streptomycin and 10% fetal bovine serum (FBS); MCC13 cells were cultured in RPMI 1640 (with 2 mM L-glutamine+25 mM HEPES; Sigma), 5% penicillin-streptomycin and 10% FBS and; DRG neurons were cultured in DMEM, 1% penicillin-streptomycin, 1% MEM vitamin solution, 1% L-glutamine, and 10% horse serum. Prior to electrophysiological measurements, N2A^Piezo1−/−, MCC13 and DRG neurons were supplemented overnight (≈18 h) with MA. […] MA was obtained from Nu-Chek Prep, INC. The cultured cells were maintained at 37° C., 95% relative humidity, and 5% CO2.
For whole-cell recordings, the bath solution contained 140 mM NaCl, 6 mM KCl, 2 mM CaCl2), 1 mM MgCl2, 10 mM glucose, and 10 mM HEPES (pH 7.4; 300 mOsm). The pipette solution for voltage-clamp recordings contained: 140 mM CsCl, 5 mM EGTA, 1 mM CaCl2), 1 mM MgCl2, and 10 mM HEPES (pH 7.2); and for current clamp recordings: 140 mM KCl, 6 mM NaCl, 2 mM CaCl2), 1 mM MgCl2, 10 mM glucose, and 10 mM HEPES (pH 7.4; 300 mOsm); MA and bradykinin acetate salt (Sigma) perfused during experiments were dissolved in the bath solution to a final concentration of 300 μM for 2 min, and 1 μM for 5 min respectively; and for long exposure experiments bradykinin was supplemented to the culture medium and added to the cells 18-24 h prior recording. For cytoskeleton disruption experiments, N2A^Piezo1−/− were incubated in media supplemented with 1 μM latrunculin A (Cayman Chemicals) for 1 h prior recordings. […]
During mechanical stimulation, currents were recorded at a constant voltage (−60 mV, voltage-clamp), and voltages were recorded without injecting current (current-clamp). […]

[2] = system: mouse PIEZO2; experiment: Whole-cell patch-clamp with mechanical indentation of N2A^Piezo1−/− cells transfected with Piezo2 variant 2 (V2); settings: latrunculin A 1 μM for 1 h
Experimental: as §1
For whole-cell recordings, the bath solution contained 140 mM NaCl, 6 mM KCl, 2 mM CaCl2), 1 mM MgCl2, 10 mM glucose, and 10 mM HEPES (pH 7.4; 300 mOsm). The pipette solution for voltage-clamp recordings contained: 140 mM CsCl, 5 mM EGTA, 1 mM CaCl2), 1 mM MgCl2, and 10 mM HEPES (pH 7.2); and for current clamp recordings: 140 mM KCl, 6 mM NaCl, 2 mM CaCl2), 1 mM MgCl2, 10 mM glucose, and 10 mM HEPES (pH 7.4; 300 mOsm); MA and bradykinin acetate salt (Sigma) perfused during experiments were dissolved in the bath solution to a final concentration of 300 μM for 2 min, and 1 μM for 5 min respectively; and for long exposure experiments bradykinin was supplemented to the culture medium and added to the cells 18-24 h prior recording. For cytoskeleton disruption experiments, N2A^Piezo1−/− were incubated in media supplemented with 1 μM latrunculin A (Cayman Chemicals) for 1 h prior recordings. Pipettes were made out of borosilicate glass (Sutter Instruments) and were fire-polished before use until a resistance between 3 and 5 MΩ was reached.
During mechanical stimulation, currents were recorded at a constant voltage (−60 mV, voltage-clamp), and voltages were recorded without injecting current (current-clamp). Both variables were sampled at 100 kHz and low-pass filtered at 10 kHz using a MultiClamp™ 700 B amplifier and Clampex (Molecular Devices, LLC). […] Leak currents before mechanical stimulations were subtracted off-line from the current traces and data were digitally filtered at 2 kHz with ClampFit (Molecular Devices, LLC).
Mechanical stimulation: For indentation assays, N2A^Piezo1−/−, MCC13 DRG neurons, and human iPSC374 derived neurons were mechanically stimulated with a heat-polished blunt glass pipette (3-4 μm) driven by a piezo servo controller (E625, Physik Instrumente). The blunt pipette was mounted on a micromanipulator at an ~45° angle and positioned 3-4 μm above from the cells without indenting them. Displacement measurements were obtained with a square-pulse protocol consisting of 1 μm incremental indentation steps, each lasting 200 ms with a 2-ms ramp in 10-s intervals. The threshold of mechano-activated currents for each experiment was defined as the indentation step that evoked the first current deflection from the baseline.

[3] = system: mice; experiment: Von Frey test after acute inflammation by topical AITC; assay type: in vivo, mouse; settings: topical AITC; saline injected mice; filaments <0.16 g
Experimental: Mice behavior: MA solution: MA was prepared in sterile Dulbecco's phosphate buffered saline, with 70 g/L fatty acid free bovine serum albumin (BSA; Sigma), and MA to a final concentration of 5 mM. The solution was filtered to avoid undissolved materials.
Subjects: For the experiment 8-12 weeks old male and female C57B16/J mice (N=12; control n=6; male=3, female=3) MA (n=6; male=3, female=3) per experiment were used. Mice were housed under a 12 hr light dark cycle and granted access to food and water ad libitum.
Treatment: Animals were put in two groups (control and MA) and given injections in the plantar of the left hind paw for 7 days prior behavioral assessment. Injections were given as follows: Mouse is restrained by their tail, foot, and over shoulders scruff. […]
Mechanical threshold (Von Frey test): Punctate mechanical allodynia was measured using Von Frey monofilaments (Stoelting, Inc.) in varying grams of force (0.008-1 g). Animals were placed in small enclosures over a wire mesh and the plantar of the hind paw was poked with a filament and responses were recorded. Withdrawal responses were recorded when the animal lifted, shook, or licked the paw in response to stimulus presentation. […]

[4] = system: mechano-currents from DRG neurons; settings: cited from earlier work

Molecule: C/C1=C/C(=O)O[C@@H]2C[C@@H](CC[C@H](C)/C=C\C=C\CC1)O[C@@](O)([C@@H]1CSC(=O)N1)C2 [latrunculin A, reference compound]
- modulation of the MA effect on the chimera by latrunculin A [1]: not modulated by latrunculin A treatment
- effect of latrunculin A on PIEZO2 inhibition by MA [2]: enhances PIEZO2 inhibition by MA
- effect of latrunculin A on PIEZO2 inhibition by MA ([2]; listed as Latrunculin A): pronounced leftward shift in the MA dose-response profile for PIEZO2

Molecule: C=CCN=C=S [AITC, Allyl isothiocyanate, reference compound]
- withdrawal from von Frey filaments caused by AITC [3]: causes mice to withdraw their hind paws from even the lightest von Frey filaments

Molecule: GsMTx-4
- inhibition of mechano-currents [4]: failed to inhibit mechano-currents from DRG neurons
